From patent US20060177839A1, “Method for modulating the evolution of a polypeptide encoded by a nucleic acid sequence” (priority 2004, published 2006) come the findings set out here.

The assay concerns dfrB1 WT gene (dehydrofolate reductase conferring resistance to trimethoprim). As to conditions: resistance conferred by dfrB1 WT gene.

The structures appear in SMILES notation.

In turn, `COc1cc(Cc2cnc(N)nc2N)cc(OC)c1OC` [trimethoprim] registered an MIC of 512 micg/ml.
